Reference: patent publication US20230039395A1, “LSD AND […] EQUIVALENCE DETERMINATION” (Universitätsspital Basel, priority 2021, published 2023)

Tests used:
[1] = Plasma exposure of LSD and iso-LSD after LSD capsules in previous studies; conditions: similar bioavailability assumed
[2] = Autonomic effects (blood pressure, heart rate, body temperature, pupil) in healthy subjects; conditions: for rate pressure product: high dose of both substances
[3] = biological target: serotonin (5-HT)2A receptors (Homo sapiens, UniProt P28223); conditions: cited from earlier work
Sequence of serotonin (5-HT)2A receptors (P28223 whole entry): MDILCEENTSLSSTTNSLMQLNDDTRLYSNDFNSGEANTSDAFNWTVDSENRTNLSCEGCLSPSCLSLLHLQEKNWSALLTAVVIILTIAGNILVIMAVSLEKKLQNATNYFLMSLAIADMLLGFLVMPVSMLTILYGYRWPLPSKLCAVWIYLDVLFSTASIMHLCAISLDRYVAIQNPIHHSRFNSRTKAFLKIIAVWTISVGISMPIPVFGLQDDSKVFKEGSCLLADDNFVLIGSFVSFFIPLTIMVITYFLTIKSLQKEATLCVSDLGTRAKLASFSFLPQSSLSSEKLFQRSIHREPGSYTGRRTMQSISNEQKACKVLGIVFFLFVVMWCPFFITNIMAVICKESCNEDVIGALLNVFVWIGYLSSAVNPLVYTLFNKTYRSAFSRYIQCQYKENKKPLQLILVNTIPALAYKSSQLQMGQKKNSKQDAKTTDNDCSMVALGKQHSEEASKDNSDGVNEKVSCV

[4] = after the 200 μg dose as two 100 μg LSD capsules (Steuer et al., 2017); cited from earlier work
[5] = Acute adverse effects, 66-item List of Complaints; conditions: for headache, number of subjects reporting: 0-12 hours, high dose; for headache, number of subjects reporting / balance disturbed, number of subjects / dry mouth, number of subjects reporting: 28 subjects
[6] = Dose equivalence of LSD and psilocybin extrapolated from acute effects; assay type: in vivo, human; conditions: LSD 200 μg
[7] = Endocrine effects: plasma cortisol and prolactin (PRL); assay type: in vivo, human; conditions: 2.5 hours after administration
Description: (§1) The subjects then underwent baseline measurements.
Endocrine effects: Plasma concentrations of cortisol, prolactin (PRL), oxytocin, and brain-derived neurotrophic factor (BDNF) were determined as described elsewhere (Holze et al., 2021; Schmid et al., 2015). Cortisol and PRL were measured before and 2.5 hours after drug administration. BDNF was measured before and three times after drug administration.
The criterion for significance was p<0.05.

[8] = 75 μg LSD base in saline i.v., previous studies; cited from earlier work
[9] = Subjective drug effects on visual analog scales (VAS) in healthy subjects
[10] = Adjective Mood Rating Scale (AMRS) in healthy subjects
[11] = four unused old LSD capsules, years after study completion; cited from earlier work
[12] = Mystical Experience Questionnaire (MEQ43 and MEQ30) in healthy subjects; conditions: LSD 200 μg; MEQ43 p=0.002, MEQ30 p=0.015
[13] = Spontaneously reported adverse events after treatment; assay type: in vivo, human; conditions: for type and amount of adverse events, psilocybin versus LSD: in vivo; for flash back episodes: within 72 hours after administration, nine episodes in five subjects
Description: as §1
In addition to the adverse effects systematically assessed with the list of complaints, there were spontaneously reported adverse events after LSD or psilocybin administration as assessed in the evening of the treatment day or within 48 hours after treatment. These adverse after effects after psilocybin or LSD administration included headaches (four subjects after psilocybin and three after LSD), migraine attack (one subject after LSD), nosebleeds (one subject after psilocybin), low mood (two subjects after psilocybin and two subjects after LSD), nausea (two subjects after psilocybin and one subject after LSD), nightmares (one subject after psilocybin), restlessness (one subject after psilocybin and one subject after LSD), vivid dreams (one subject after LSD), insomnia (one subject after psilocybin), involuntary movement in lower extremities (one subject after LSD). Nine flash back episodes occurred in five subjects (one to 20 times within 72 hours after substance administration), five episodes occurred after LSD administration, four episodes occurred after psilocybin administration.

D1-3 receptors = conditions: cited from earlier work
[14] = 5 Dimensions of Altered States of Consciousness Scale (5D-ASC) in healthy subjects
5-HT transporter (SERT) = 5-HT transporter (SERT) (Homo sapiens, UniProt P31645); conditions: cited from earlier work
Sequence of 5-HT transporter (SERT) (P31645 whole entry, species assumed): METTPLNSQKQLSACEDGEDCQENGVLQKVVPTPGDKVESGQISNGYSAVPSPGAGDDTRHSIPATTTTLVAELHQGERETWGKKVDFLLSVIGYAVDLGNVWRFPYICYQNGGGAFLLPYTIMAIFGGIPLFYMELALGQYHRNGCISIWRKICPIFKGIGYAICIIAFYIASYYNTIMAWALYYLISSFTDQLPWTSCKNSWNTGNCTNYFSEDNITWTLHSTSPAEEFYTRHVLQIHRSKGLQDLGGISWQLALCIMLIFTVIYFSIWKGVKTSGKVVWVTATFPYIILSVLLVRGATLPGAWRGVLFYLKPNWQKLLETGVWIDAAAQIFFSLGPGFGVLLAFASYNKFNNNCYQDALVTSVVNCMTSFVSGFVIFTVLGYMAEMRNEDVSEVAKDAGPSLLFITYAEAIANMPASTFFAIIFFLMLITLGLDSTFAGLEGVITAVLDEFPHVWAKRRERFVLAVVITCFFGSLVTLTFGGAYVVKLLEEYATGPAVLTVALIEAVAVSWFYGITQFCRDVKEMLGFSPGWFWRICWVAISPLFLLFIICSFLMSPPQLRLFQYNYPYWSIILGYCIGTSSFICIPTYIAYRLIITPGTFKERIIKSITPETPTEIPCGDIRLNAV

[15] = evening of treatment day or within 48 hours

CCN(CC)C(=O)[C@@H]1C=C2c3cccc4[nH]cc(c34)C[C@H]2N(C)C1 [LSD, lysergic acid diethylamide]
AUC∞ as percent of the value expected from confirmed 96 μg LSD doses ([1]; 100 μg dose): 61%
AUC∞ as percent of the value expected from confirmed 96 μg LSD doses ([1]; 200 μg dose): 76%
increase in heart rate versus psilocybin 30 mg ([2]; LSD 200 μg, p=0.002): significantly more
rate pressure product [2]: similarly increased
binding to 5-HT2A receptors [3]: bind
plasma AUC24 [4]: 21 ng·h/mL
headache, number of subjects reporting [5]: 13 subjects
balance disturbed, number of subjects [5]: 16 subjects
dry mouth, number of subjects reporting [5]: 15 subjects
frequency of acute adverse effects, LSD versus psilocybin ([5]; in vivo): equally frequent
most frequent acute adverse effects ([5]; in vivo): fatigue, headache, lack of concentration, lack of energy, dullness, feeling week, loss of appetite, dry mouth, and impaired balance
total number of acute complaints, 100 versus 200 μg LSD ([5]; in vivo): did not differ
overall strength versus the 30 mg psilocybin dose [6]: overall stronger
PRL plasma concentrations [7]: significantly increased
cortisol plasma concentrations [7]: significantly increased
clinical response to 75 μg intravenous LSD versus oral 100 μg dose [8]: not significantly different
dose-response curve of subjective effects ([9]; 15-30 mg psilocybin range compared to 100-200 μg LSD range): plateau effect
overall effects and positive drug effects, 200 μg versus 100 μg LSD ([9]; LSD 100 and 200 μg oral): comparable positive drug effects
bad drug effects, 200 μg versus 100 μg LSD ([9]; human, in vivo): more
ego dissolution (VAS), 200 μg versus 100 μg LSD ([9]; p=0.014): more and greater
anxiety (VAS), 200 μg versus 100 μg LSD ([9]; p=0.054): more and near-significantly greater
AMRS emotional excitation versus 15 mg or 30 mg psilocybin ([10]; LSD 100 and 200 μg): greater
AMRS extraversion ratings versus placebo ([10]; all doses): decrease
AMRS inactivation ratings versus placebo ([10]; all doses): significantly and similarly increased
AMRS introversion ratings versus placebo ([10]; all doses): increased
AMRS self-rated anxiety ([10]; both doses of LSD (100 and 200 μg)): slightly but significantly increased
remaining amount of LSD in capsules [11]: 22 ± 7 µg
MEQ ineffability ratings versus 30 mg psilocybin [12]: significantly greater
headaches, spontaneously reported [13, 15]: three
involuntary movement in lower extremities, spontaneously reported [13, 15]: one
low mood, spontaneously reported [13, 15]: two
migraine attack, spontaneously reported [13, 15]: one
nausea, spontaneously reported [13, 15]: one
restlessness, spontaneously reported [13, 15]: one
vivid dreams, spontaneously reported [13, 15]: one
type and amount of adverse events, psilocybin versus LSD [13]: comparable
flash back episodes [13]: five
action on D1-3 receptors (D1-3 receptors): stimulates
alterations of the mind in the 5D-ASC scale ([14]; human, in vivo): marked alterations of the mind
5D-ASC AED (anxious ego dissolution), 200 μg versus 100 μg LSD ([14]; p=0.02): greater
5D-ASC anxiety, 200 μg versus 100 μg LSD ([14]; p=0.03): greater
5D-ASC impairments of control and cognition, 200 μg versus 100 μg LSD ([14]; p=0.04): greater

CN(C)CCc1c[nH]c2cccc(O)c12 [Psilocin, psilocin]
action on the 5-HT transporter (SERT) (5-HT transporter (SERT)): inhibits

CCN(CC)C(=O)[C@H]1C=C2c3cccc4[nH]cc(c34)C[C@H]2N(C)C1 [iso-LSD]
plasma AUC24 [4]: 9.2 ng·h/mL

CN(C)CCc1c[nH]c2cccc(OP(=O)(O)O)c12 [psilocybin]
rate pressure product [2]: similarly increased
increase in diastolic blood pressure versus LSD 200 μg ([2]; psilocybin 30 mg, p<0.001): more
increase in systolic blood pressure versus LSD 200 μg ([2]; psilocybin 30 mg, p=0.04): more
headache, number of subjects reporting [5]: 18 subjects
balance disturbed, number of subjects [5]: 16 subjects
dry mouth, number of subjects reporting [5]: 9 subjects
frequency of acute adverse effects, LSD versus psilocybin ([5]; in vivo): equally frequent
most frequent acute adverse effects ([5]; in vivo): fatigue, headache, lack of concentration, lack of energy, dullness, feeling week, loss of appetite, dry mouth, and impaired balance
acute adverse effects versus LSD 100 μg ([5]; psilocybin 15 mg, p<0.01): fewer
acute adverse effects versus psilocybin 30 mg ([5]; psilocybin 15 mg, p<0.1): trend toward fewer
headaches, spontaneously reported [13, 15]: four
insomnia, spontaneously reported [13, 15]: one
low mood, spontaneously reported [13, 15]: two
nausea, spontaneously reported [13, 15]: two
nightmares, spontaneously reported [13, 15]: one
nosebleeds, spontaneously reported [13, 15]: one
restlessness, spontaneously reported [13, 15]: one
type and amount of adverse events, psilocybin versus LSD [13]: comparable
flash back episodes [13]: four
